Reference: ChEMBL document CHEMBL1795291, “Computer- and structure-based lead design for epigenetic targets” (Bioorg Med Chem, 2011)

Columns and labels:
[1] = biological target: T1, NAD-dependent protein deacetylase sirtuin-2 (Homo sapiens, UniProt Q8IXJ6); test: Inhibition of human Sirt2
T1 sequence (Q8IXJ6 whole entry): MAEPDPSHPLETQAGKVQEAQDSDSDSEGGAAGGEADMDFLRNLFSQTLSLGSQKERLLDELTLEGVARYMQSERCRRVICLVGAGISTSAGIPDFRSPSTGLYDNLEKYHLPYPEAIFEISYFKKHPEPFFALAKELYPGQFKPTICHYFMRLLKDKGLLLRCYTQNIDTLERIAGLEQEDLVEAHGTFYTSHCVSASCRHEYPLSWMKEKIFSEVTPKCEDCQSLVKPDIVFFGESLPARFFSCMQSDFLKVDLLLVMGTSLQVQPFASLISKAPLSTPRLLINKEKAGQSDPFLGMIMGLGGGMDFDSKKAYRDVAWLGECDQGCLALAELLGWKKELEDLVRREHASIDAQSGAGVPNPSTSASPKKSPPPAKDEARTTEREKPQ

[2] = Inhibition of HDAC by fluorescence assay
[3] = biological target: T2, Histone-lysine N-methyltransferase EHMT2 (Homo sapiens, UniProt Q96KQ7); test: Inhibition of lysine methyltransferase G9a
T2 sequence (Q96KQ7 whole entry): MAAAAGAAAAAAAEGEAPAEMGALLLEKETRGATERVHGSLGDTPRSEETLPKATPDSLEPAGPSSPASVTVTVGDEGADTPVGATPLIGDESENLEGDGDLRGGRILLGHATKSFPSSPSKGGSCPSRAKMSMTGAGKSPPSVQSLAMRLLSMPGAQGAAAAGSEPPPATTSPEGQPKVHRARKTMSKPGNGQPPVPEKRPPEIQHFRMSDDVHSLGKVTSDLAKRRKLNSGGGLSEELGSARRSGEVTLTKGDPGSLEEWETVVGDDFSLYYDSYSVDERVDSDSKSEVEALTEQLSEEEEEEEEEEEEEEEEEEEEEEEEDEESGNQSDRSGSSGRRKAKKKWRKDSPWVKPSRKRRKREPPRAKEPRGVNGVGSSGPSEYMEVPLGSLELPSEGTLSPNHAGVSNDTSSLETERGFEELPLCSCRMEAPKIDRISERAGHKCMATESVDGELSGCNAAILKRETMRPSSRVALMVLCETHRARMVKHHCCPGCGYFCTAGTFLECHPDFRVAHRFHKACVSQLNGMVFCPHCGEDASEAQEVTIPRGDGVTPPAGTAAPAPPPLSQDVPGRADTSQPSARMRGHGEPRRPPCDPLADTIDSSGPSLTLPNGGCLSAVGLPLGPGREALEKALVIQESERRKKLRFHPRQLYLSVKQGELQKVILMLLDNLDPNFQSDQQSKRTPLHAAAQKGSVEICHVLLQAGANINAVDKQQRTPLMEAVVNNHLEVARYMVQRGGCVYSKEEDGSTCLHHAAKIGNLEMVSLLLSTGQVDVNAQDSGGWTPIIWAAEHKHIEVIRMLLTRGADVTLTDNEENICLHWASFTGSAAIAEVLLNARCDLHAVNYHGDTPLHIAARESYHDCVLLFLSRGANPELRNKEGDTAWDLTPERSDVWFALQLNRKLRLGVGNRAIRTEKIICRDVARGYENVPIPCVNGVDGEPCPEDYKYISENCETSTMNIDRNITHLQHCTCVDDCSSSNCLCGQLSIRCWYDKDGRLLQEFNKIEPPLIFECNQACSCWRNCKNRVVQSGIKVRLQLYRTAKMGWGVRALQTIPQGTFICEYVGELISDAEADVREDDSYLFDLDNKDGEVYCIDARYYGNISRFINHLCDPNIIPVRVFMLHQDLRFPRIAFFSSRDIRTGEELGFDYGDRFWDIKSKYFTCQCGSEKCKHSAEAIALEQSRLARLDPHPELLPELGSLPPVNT

SMILES: O=C1NC(=S)NC(=O)C1=Cc1ccc(-c2ccccc2)cc1
- IC50 [1]: 8.7 µM

SMILES: CCc1nnc(NS(=O)(=O)c2ccc(N/C=C3\Sc4ccccc4C3=O)cc2)s1
- IC50 [2]: 4.3 µM

SMILES: COc1ccc(C(=O)Oc2ccc(CCn3c(NC(=O)c4ccc(C(F)(F)F)cc4)nc4cc(C(=O)O)ccc43)cc2)cc1
- IC50 [3]: 0.106 µM
